Test results: patent US20150309047A1, “CIRCULATING PROTEOLYTIC BIOMARKERS OF CELL DEATH AND METHODS FOR THE USE THEREOF” (The Regents of the University of California, priority 2014, published 2015)
Residues, ends and D or L forms follow the SMILES beside them. *: point of attachment. Cbz = O=C(OCc1ccccc1)*; CH2F = FC*

Assays:
Type in all cases: cell-based, human
Jurkat cells [1] = experiment: Immunoblotting of caspase substrate proteolysis during apoptosis in Jurkat cells
Method: Jurkat cells at a density of 1×10^6 cells/ml were treated with etoposide (50 μM) for 0, 2, 4, 8, 12, and 24 hours prior to harvesting. Harvested cells were pelleted at 2,000×g and 25° C. for 5 minutes, washed twice with phosphate buffered saline, and lysed at a concentration of 2×10^7 cells/ml in 1.0% SDS, phosphate buffered saline, 100 μM Z-VAD-FMK, 100 μM E-64, 1 mM PMSF, 1 mM AEBSF, 5 mM EDTA, and 10 mM sodium butyrate. Whole cell lysates were sonicated to shear genomic DNA, normalized to a protein concentration of approximately 2 mg/ml, as determined by BCA assay (Pierce). Cell lysates for each apoptotic timepoint were then analyzed by SDS-PAGE and Western blot. Mouse monoclonal anti-caspase-3 (#9668) and rabbit polyclonal anti-HDAC3 (#2632) antibodies were purchased from Cell Signaling Technology. Mouse monoclonal anti-DFF45 (#611036) antibody was purchased from BD Transduction Laboratories. Goat polyclonal anti-N-Cor (#sc-1611) and rabbit polyclonal anti-HDAC7 (#sc-11412) antibodies were purchased from Santa Cruz Biotechnology. Rabbit polyclonal anti-TBLR1 (#A300-408A), rabbit polyclonal anti-SHARP (#A301-119A), and rabbit polyclonal anti-RBBP7 (#A300-959A) antibodies were purchased from Bethyl Laboratories. Rabbit polyclonal anti-SMRTe (#06-891) antibody was purchased from Millipore. Western blots were imaged using SuperSignal West Femto Substrate (Pierce) with a FluorChem SP imager (Alpha Innotech). DNA fragmentation of whole cell DNA was analyzed by agarose gel with the Apoptotic DNA Ladder Kit (Roche).

MM1.S = experiment: N-terminal labeling and MS of proteolytic fragments released into media from drug-treated cultured cells; conditions: MM1.S treated with bortezomib for at least 21 h
Method: (§1) MM1.S and SU-DHL-8 lines were obtained from ATCC; MOLM-13 from DMSZ. Cell lines were grown in RPMI-1640 media without fetal bovine serum for 24 h prior to drug treatment at indicated doses. After treatment, cells and debris were separated from media by low speed (800×g, 5 min), followed by high speed (24,000×g, 1 h) centrifugation. Total protein in media was precipitated with trichloroacetic acid, resuspended in 8M guanidine HCl, then subjected to N-terminal labeling as described (Wiita A P, et al. (2013) Global cellular response to chemotherapy-induced apoptosis. Elife 2:e01236).
(§2) Three cell lines treated with different drugs were evaluated: i) MM1.S, derived from multiple myeloma and treated with the proteasome inhibitor bortezomib, ii) MOLM-13, derived from acute myeloid leukemia and treated with the nucleoside analog cytarabine, and iii) SU-DHL-8, derived from diffuse large B-cell lymphoma and treated with the DNA-damaging agent doxorubicin. All of these conditions reflect the diagnoses of patients in the discovery cohort combined with clinically used chemotherapeutics. Under each condition the cells were either treated with drug or mock-treated for at least 21 h. […] After removing whole cells, proteins in the media were precipitated with trichloroacetic acid and then subjected to N-terminal labeling by subtiligase. FBS-free media was used in these experiments to avoid contamination from normal bovine plasma proteins.

MOLM-13 = experiment: as above; conditions: MOLM-13 treated with cytarabine for at least 21 h
Method: as §1, §2

SU-DHL-8 = experiment: as above; conditions: SU-DHL-8 treated with doxorubicin for at least 21 h
Method: as §1, §2

Jurkat cells [2] = experiment: Subtiligase N-terminal labeling and LC/MS/MS degradomic analysis of etoposide-treated apoptotic Jurkat cells; conditions: Jurkat cells treated with etoposide
Method: Jurkat clone E6-1 (ATCC) cells were grown in RPMI-1640 supplemented with 10% fetal bovine serum, sodium pyruvate, and antibiotics. Normal cells were harvested for experiments at a density of 1×10^6 cells/ml. For apoptotic samples, cells at a density of 1×10^6 cells/ml were treated with etoposide (50 μM) for 12 hours prior to harvesting. Harvested cells (0.1 to 1 billion) were pelleted at 2,000×g and 25° C. for 5 minutes, washed twice with phosphate buffered saline, and lysed at a typical concentration of 2×10^8 cells/ml in 1.0% Triton X-100, 100 mM BICINE pH 8.0, 100 μM Z-VAD-FMK, 100 μM E-64, 1 mM PMSF, 1 mM AEBSF, and 5 mM EDTA. Cell lysates were incubated at room temperature for 1 hour to allow complete inhibition of endogenous protease and esterase activity, and centrifuged at 21,000×g and 4° C. for 15 minutes to pellet insoluble material. Clarified supernatant was immediately used in ligation reactions at a protein concentration of approximately 20 mg/ml, as determined by Bradford assay (Bio-Rad).
Subtiligase (1 μM), biotinylated peptide ester (1 mM), and DTT (2 mM) were added to either control or apoptotic cell lysate. Ligation reactions were typically left to proceed at room temperature for 60 minutes. […]

[3] = Jurkat cells, 50 μM etoposide, immunoblot

## COC(=O)C[C@H](NC(=O)[C@H](C)NC(=O)[C@@H](NC(=O)OCc1ccccc1)C(C)C)C(=O)CF [Z-VAD(OMe)-fmk] (Cbz-Val-Ala-Asp(OMe)-CH2F)
Jurkat cells [1]; etoposide-treated Jurkat cells with caspase inhibitor
  cleavage of representative substrates HDAC7, Ku80, RCOR2, TBLR1, and UBP36: blocked

## CC(C)C[C@H](NC(=O)[C@H](Cc1ccccc1)NC(=O)c1cnccn1)B(O)O [bortezomib]
MM1.S
  apoptosis of treated cells: at least 50%

## Nc1ccn([C@@H]2O[C@H](CO)[C@@H](O)[C@@H]2O)c(=O)n1 [cytarabine]
MOLM-13
  apoptosis of treated cells: at least 50%

## COc1cccc2c1C(=O)c1c(O)c3c(c(O)c1C2=O)C[C@@](O)(C(=O)CO)C[C@@H]3O[C@H]1C[C@H](N)[C@H](O)[C@H](C)O1 [doxorubicin]
SU-DHL-8
  apoptosis of treated cells: at least 50%

## COc1cc([C@@H]2c3cc4c(cc3[C@@H](O[C@@H]3O[C@@H]5CO[C@@H](C)O[C@H]5[C@H](O)[C@H]3O)[C@H]3COC(=O)[C@H]23)OCO4)cc(OC)c1O [etoposide]
Jurkat cells [2]; large-scale (2D LC/MS/MS) experiments
  N-termini identified in apoptotic cells derived from P1 aspartate cleavages: 43%
Jurkat cells [2]; small-scale (1D LC/MS/MS) experiments
  N-termini identified in apoptotic cells derived from P1 aspartate cleavages: 43%
Jurkat cells [1]; [3]
  proteolysis of CM, Ku80, LCOR, and RBBP7 (time courses): partial cleavage
  proteolysis of HDAC6, HDAC7, N-CoR, RCOR2, SHARP, TBLR1, UBPS, and UBP36 (time courses): full cleavage
